Values quoted from earlier work in publication PMC9054008 (Science Advances, 2022).

Target: I-Ab (Mus musculus, UniProt P14434+P14483)
Conditions: cited from earlier work

Chain of I-Ab (P14434 whole entry, looked up): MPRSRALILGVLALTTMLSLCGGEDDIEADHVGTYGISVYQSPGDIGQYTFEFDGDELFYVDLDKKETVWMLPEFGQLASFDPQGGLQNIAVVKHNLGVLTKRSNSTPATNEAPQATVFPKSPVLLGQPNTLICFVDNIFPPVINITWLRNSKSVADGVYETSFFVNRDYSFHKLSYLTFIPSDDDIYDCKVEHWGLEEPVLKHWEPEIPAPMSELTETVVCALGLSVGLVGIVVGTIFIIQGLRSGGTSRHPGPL
Chain of I-Ab (P14483 whole entry, looked up): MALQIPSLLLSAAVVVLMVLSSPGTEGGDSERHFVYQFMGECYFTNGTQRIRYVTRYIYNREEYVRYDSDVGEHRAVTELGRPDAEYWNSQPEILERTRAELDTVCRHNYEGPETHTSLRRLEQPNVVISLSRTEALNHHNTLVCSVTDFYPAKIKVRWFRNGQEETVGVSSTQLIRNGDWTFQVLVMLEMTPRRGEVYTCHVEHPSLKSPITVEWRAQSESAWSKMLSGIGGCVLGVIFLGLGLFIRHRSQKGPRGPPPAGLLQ

Q: Which IC50 does the source give for KVFNTRRNTLLFLDL here?
A: 4.62 µM

Q: For RHIVGKPCPKPHRLN, which IC50 is on record?
A: 8.7 µM

Q: With IEDAKRMIAISAKVA as the sequence, how does the IC50 read?
A: 6.99 µM

Q: Which IC50 does the source give for ILKGVINIWGSGLLQ here?
A: 7.27 µM

Q: With EEALNVALAVVTLLA as the sequence, how does the IC50 read?
A: 2.73 µM

Q: Which IC50 does the source give for NSLILLECFVRSSPA here?
A: 6.03 µM

Q: Which IC50 does the source give for TKKSIKEIASSISRL here?
A: 3.77 µM

Q: With MGQLISFFGEIPSII as the sequence, how does the IC50 read?
A: 9.64 µM

Q: Which IC50 does the source give for MDLADLFNAQPGLTS here?
A: 5.78 µM

Q: For SGDAMARNISSRTLE, which IC50 is on record?
A: 5.34 µM
